Results published in article PMC4257618, “Structures of Plasmodium vivax serine hydroxymethyltransferase: implications for ligand-binding specificity and functional control” (Acta Crystallographica Section D: Biological Crystallography, 2014).
Each block holds one molecule with its values, some of them ahead of it.

Columns and labels:
[1] = target: T1, serine hydroxymethyltransferase (PvSHMT) (Plasmodium vivax, UniProt A5K8L9); assay: X-ray crystal structure at […] Å; also […] inhibition at […] in SHMT–MTHFD coupled assay; assay type: binding; conditions: read-out: % inhibition at 1.55 mM
T1 construct: gene PVX_100730
T1 sequence (A5K8L9 1-442): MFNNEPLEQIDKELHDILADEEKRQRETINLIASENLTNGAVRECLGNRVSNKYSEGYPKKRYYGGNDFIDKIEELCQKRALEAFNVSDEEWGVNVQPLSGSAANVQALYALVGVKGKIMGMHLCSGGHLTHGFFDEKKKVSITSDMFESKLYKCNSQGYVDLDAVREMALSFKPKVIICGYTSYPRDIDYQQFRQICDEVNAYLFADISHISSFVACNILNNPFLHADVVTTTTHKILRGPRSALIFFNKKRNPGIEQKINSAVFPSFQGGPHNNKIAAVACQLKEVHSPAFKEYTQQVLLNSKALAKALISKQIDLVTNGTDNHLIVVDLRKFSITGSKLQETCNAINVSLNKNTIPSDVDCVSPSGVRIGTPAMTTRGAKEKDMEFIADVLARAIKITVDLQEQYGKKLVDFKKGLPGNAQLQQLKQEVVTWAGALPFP

[2] = target: T1, serine hydroxymethyltransferase (PvSHMT); assay: X-ray crystal structure at […] Å; assay type: binding
[3] = target: T1, serine hydroxymethyltransferase (PvSHMT); assay: X-ray crystal structure at […] Å; assay type: binding; remark: listed apart in the source
[4] = target: T1, serine hydroxymethyltransferase (PvSHMT); assay: SHMT–MTHFD coupled enzyme assay (L-Ser–THF); quinonoid formation with D-Ser by absorbance; assay type: biochemical

inhibition at 1550 µM [1]: 30%
SMILES: Nc1nc(=O)c2c([nH]1)NC[C@@H](CNc1ccc(C(=O)N[C@@H](CCC(=O)O)C(=O)O)cc1)N2C=O (racemic) [(6R)-5FTHF, (6R)-5-formyltetrahydrofolate]

SMILES: N[C@@H](CO)C(=O)O [L-Ser, L-serine]
X-ray crystal structure at 2.5 Å [2]: 4pfn for the PLP–L-Ser external aldimine

SMILES: Cc1ncc(COP(=O)(O)O)c(C=O)c1O [PLP, pyridoxal-5′-phosphate]
X-ray crystal structure at 2.3 Å [3]: 4pff for the PLP internal aldimine

Ki [4]: 210 µM
SMILES: Nc1nc(=O)c2c([nH]1)NC[C@H](CNc1ccc(C(=O)N[C@@H](CCC(=O)O)C(=O)O)cc1)N2C=O [(6S)-5FTHF, (6S)-5-formyltetrahydrofolate]
